According to publication PMC7824341, “Phenylhydrazone and Quinazoline Derivatives from the Cold-Seep-Derived Fungus Penicillium oxalicum” (Marine Drugs, 2020):
≈ marks a conversion by molar mass, not a printed value. Read-outs that look alike come from different tables or passages of the source.

How the values were obtained:
Prorocentrum donghaiense = assay: Inhibition of marine microalgae; assay type: cell-based; conditions: microalga Prorocentrum donghaiense; for IC50: Prorocentrum donghaiense, read-out: IC50 P. donghaiense
Experimental: (§1) Mariculture is often threatened by harmful algal blooms and pathogenic bacteria. Compounds 1–5 and dankasterone A were assayed for inhibition of the three microalgae Chattonella marina, Heterosigma akashiwo, and Prorocentrum donghaiense, and the results are shown in Table 4. […] In addition, their inhibition against four marine-derived bacterial pathogens including Vibrio anguillarum, Vibrio harveyi, Vibrio parahaemolyticus, and Vibrio splendidus was detected using the disk diffusion method. […] The MIC values of active molecules were also measured, but only those of 4 and 5 (8 μg/mL) appeared lower than 10 μg/mL. […] In view of the above inhibitory effects of 1, 4, 5, and dankasterone A on the microalgal and bacterial species, their toxicities to the marine zooplankton Artemia salina were also tested.

Heterosigma akashiwo = assay: Inhibition of marine microalgae; assay type: cell-based; conditions: microalga Heterosigma akashiwo; for IC50: Heterosigma akashiwo, read-out: IC50 H. akashiwo
Experimental: as §1

Chattonella marina = assay: Inhibition of marine microalgae; assay type: cell-based; conditions: microalga Chattonella marina; for IC50: Chattonella marina, read-out: IC50 C. marina
Experimental: as §1

in vivo = conditions: in vivo; marine zooplankton Artemia salina
Experimental: as §1

Vibrio splendidus = assay: Antibacterial disk diffusion method; assay type: cell-based; conditions: at 20 μg/disk; for zone of inhibition at 20 µg/disc: Vibrio splendidus, read-out: Inhibitory Zone Diameter V. splendidus
Experimental: as §1

Vibrio parahaemolyticus = assay: Antibacterial disk diffusion method; assay type: cell-based; conditions: at 20 μg/disk, read-out: Inhibitory Zone Diameter V. parahaemolyticus
Experimental: as §1

Vibrio anguillarum = assay: Antibacterial disk diffusion method; assay type: cell-based; conditions: at 20 μg/disk; for zone of inhibition at 20 µg/disc: Vibrio anguillarum, read-out: Inhibitory Zone Diameter V. anguillarum
Experimental: as §1

Vibrio harveyi = assay: Antibacterial disk diffusion method; assay type: cell-based; conditions: at 20 μg/disk, read-out: Inhibitory Zone Diameter V. harveyi
Experimental: as §1

[1] = system: V. harveyi and V. parahaemolyticus; assay: MIC of active molecules against marine-derived bacterial pathogens; assay type: cell-based, Vibrio harveyi, Vibrio parahaemolyticus; conditions: bacterial strain not given, active molecules were those inhibiting V. harveyi and V. parahaemolyticus
Experimental: as §1

Artemia salina = assay: in vivo; conditions: marine zooplankton Artemia salina
Experimental: as §1

CC(C)C(C)C=CC(C)C1CCC(=O)C23CC(=O)C4=CC(=NNc5ccccc5C(=O)O)CCC4(C)C2CCC13C (stereo not shown) [Compound 1, Penoxahydrazone A]
IC50 (Prorocentrum donghaiense): 0.68 µg/mL (≈ 1.22 µM) | IC50 (Heterosigma akashiwo): 3.7 µg/mL (≈ 6.62 µM) | IC50 (Chattonella marina): 1.2 µg/mL (≈ 2.15 µM) | LC50 (in vivo): 58 µg/mL (≈ 104 µM) | zone of inhibition at 20 µg/disc (Vibrio splendidus): 0 mm | zone of inhibition at 20 µg/disc (Vibrio parahaemolyticus): > 10 mm | zone of inhibition at 20 µg/disc (Vibrio anguillarum): 0 mm | zone of inhibition at 20 µg/disc (Vibrio harveyi): > 10 mm

COC(=O)C(Cc1ccc(O)cc1)n1cnc2ccccc2c1=O (stereo not shown) [Compound 4, Penoxazolone A]
MIC ([1]; read-out: MIC): 8 µg/mL | IC50 P. donghaiense (Prorocentrum donghaiense): 0.57 µg/mL (≈ 1.76 µM) | IC50 (Heterosigma akashiwo): 8.1 µg/mL (≈ 25 µM) | IC50 C. marina (Chattonella marina): 2.8 µg/mL (≈ 8.63 µM) | LC50 (in vivo): > 100 µg/mL | zone of inhibition at 20 µg/disc (Vibrio splendidus): 7.3 mm | zone of inhibition at 20 µg/disc (Vibrio parahaemolyticus): > 10 mm | Inhibitory Zone Diameter V. anguillarum (Vibrio anguillarum): 7.0 mm | zone of inhibition at 20 µg/disc (Vibrio harveyi): > 10 mm

COC(=O)C(Cc1ccc(O)cc1)n1cnc2ccccc2c1=O (stereo not shown) [Compound 5, Penoxazolone B]
MIC [1]: 8 µg/mL | IC50 P. donghaiense (Prorocentrum donghaiense): 1.2 µg/mL (≈ 3.7 µM) | IC50 H. akashiwo (Heterosigma akashiwo): 9.0 µg/mL (≈ 27.7 µM) | IC50 C. marina (Chattonella marina): 9.1 µg/mL (≈ 28.1 µM) | LC50 A. salina (Artemia salina): >100 µg/mL | Inhibitory Zone Diameter V. splendidus (Vibrio splendidus): 7.0 mm | Inhibitory Zone Diameter V. anguillarum (Vibrio anguillarum): 0 mm

[K+].[K+].[O]=[Cr](=[O])([O-])[O][Cr](=[O])(=[O])[O-] [Compound K2Cr2O7, K2Cr2O7, reference compound]
IC50 P. donghaiense (Prorocentrum donghaiense): 1.2 µg/mL | IC50 H. akashiwo (Heterosigma akashiwo): 2.4 µg/mL | IC50 C. marina (Chattonella marina): 0.60 µg/mL | LC50 A. salina (Artemia salina): 18 µg/mL

O=C(N[C@H](CO)[C@H](O)c1ccc([N+](=O)[O-])cc1)C(Cl)Cl [chloramphenicol, reference compound]
zone of inhibition at 20 µg/disc (Vibrio splendidus): 23 mm | zone of inhibition at 20 µg/disc (Vibrio parahaemolyticus): 28 mm | zone of inhibition at 20 µg/disc (Vibrio anguillarum): 18 mm | zone of inhibition at 20 µg/disc (Vibrio harveyi): 29 mm

CC(C)[C@@H](C)/C=C/[C@@H](C)[C@H]1CCC(=O)[C@]23CC(=O)C4=CC(=O)CC[C@]4(C)[C@H]2CC[C@]13C [dankasterone A]
IC50 (Prorocentrum donghaiense): 1 µg/mL (≈ 2.36 µM) | IC50 (Heterosigma akashiwo): 4.6 µg/mL (≈ 10.8 µM) | IC50 (Chattonella marina): 1.9 µg/mL (≈ 4.47 µM) | LC50 (in vivo): 43 µg/mL (≈ 101 µM) | zone of inhibition at 20 µg/disc (Vibrio splendidus): 0 mm | zone of inhibition at 20 µg/disc (Vibrio parahaemolyticus): > 10 mm | zone of inhibition at 20 µg/disc (Vibrio anguillarum): 7 mm | zone of inhibition at 20 µg/disc (Vibrio harveyi): > 10 mm
